From US20250186456A1, “PYRIMIDINE-FUSED CYCLIC COMPOUND AND PREPARATION METHOD AND USE THEREOF” (Genfleet Therapeutics (Shanghai) Inc., priority 2021, published 2025)
Read-outs that look alike come from different tables or passages of the source.

Key:
[1] = system: p-ERK in AGS cells (KRAS G12D mutation); assay: Cell p-ERK assay (HTRF, Advance ERK phospho-T202/Y204 kit); format: cell-based, human; conditions: AGS cells, 3 hours incubation with compound, HTRF, read-out: AGS p-ERK IC50
Procedure: AGS was purchased from ATCC; catalog No: CRL-1739; F12K was purchased from Gibco; catalog No: 21127-022; FBS was purchased from Gibco; catalog No: 10099-141C; trypsin (containing EDTA) was purchased from Gibco, catalog No: 25200-072; DMSO was purchased from VWRAMRESCO; catalog No: 0231-500 ML; 96-well cell culture plates were purchased from Corning; catalog No: 3599; white opaque 96-well plates were purchased from Cisbio; catalog No: 66PL96025; Advance ERK phospho-T202/Y204 kit was purchased from Cisbio; catalog No: 64AERPEH; cell counters were purchased from CHEMOMETEC; model No: NC-200; microplate reader was purchased from PerkinElmer; model No: Envison.
AGS is an endogenous human gastric adenocarcinoma cell line containing the KRAS^G12D mutation, cultured in F12K+10% FBS medium. On the first day of the experiment, cells in the logarithmic growth phase were taken, digested with trypsin (containing EDTA), collected, and counted. Approximately 20000 cells/well were seeded in a 96-well cell culture plate and cultured overnight in an incubator with 5% CO2. 1000X stock solutions of compounds at a 3.16-fold concentration gradient were prepared using DMSO, and diluted 200-fold into a 5X compound stock solution using the medium described above. The 5X compound stock solution was added to each cell culturing well the day after cell seeding at a final concentration of 1X and a DMSO content of 0.1%. DMSO was used as a control in the experiment. After the compound was added and the incubation was kept for 3 hours, the medium in the culture wells was removed. 50 μl of Cell lysis solution (from Advance ERK phospho-T202/Y204 kit, the same below) was added to each well, mixed well, and incubated for 30 minutes and then 16 μl of the mixed solution was transferred to a white opaque 96-well plate, another 16 μl of cell lysis solution was added to a well as a blank well. After transferring, 4 μl of p-ERK HTRF antibody mixture (from Advance ERK phospho-T202/Y204 kit) was added to each well. After incubation for 4 hours, HTRF fluorescence value (RLU) was read by a microplate reader, and p-ERK level inhibition rate (IR (%)=(RLU control-RLU compound)/(RLU control-RLU blank)×100%) of the compounds was calculated. The concentration of the compounds and corresponding cell p-ERK level inhibition rate were fitted using Prism 8 four-parameters method, and the IC50 value was calculated.

AGS cells (KRAS G12D) = assay: Cell proliferation inhibition assay, 3D, CellTiter-Glo 3D, AGS; format: cell-based, human; conditions: Homo sapiens, 120 h, AGS 3D sphere model, 5 days incubation
Text: AsPC-1 was purchased from ATCC; catalog No: CRL-1682; AGS was purchased from ATCC; catalog No: CRL-1739; RPMI1640 was purchased from Gibco; catalog No: 11875-093 2235123; F12K was purchased from Gibco; catalog No: 21127-022; FBS was purchased from Gibco; catalog No: 10099-141C; trypsin (containing EDTA) was purchased from Gibco; catalog No: 25200-072; CellTiter Glo-3D was purchased from Progema; catalog No: G9683; 384-well sphere plates were purchased from Corning; catalog No: 3830; white opaque 384-well plates were purchased from Corning; catalog No: 3570; cell counters were purchased from CHEMOMETEC; model: NC-200; microplate reader was purchased from PerkinElmer; model: Envison;
AsPC-1 is an endogenous human pancreatic cancer cell containing KRAS^G12D mutation, cultured in RPMI-1640 medium containing 10% FBS; AGS is a human gastric cancer cell line containing KRAS^G12D, cultured in F-12K medium containing 10% FBS. Cells in the logarithmic growth phase were taken, digested with trypsin (containing EDTA), collected, and counted. 800 AsPC-1 cells/well or 400 AGS cells/well, respectively, were seeded in a 384-well sphere plate and cultured overnight at 5% CO2 to establish a 3D cell model. 1000X stock solutions of compounds at a 3.16-fold concentration gradient of were prepared using DMSO, diluted 100-fold into a 10X compound stock solution using the medium described above. The 10X compound stock solution was added to each cell on 2nd day after cell seeding at a final concentration of 1X and a DMSO content of 0.1%. DMSO was used as a control in the experiment, and the medium was used as blank. After the addition of the compounds, the cells were incubated for 5 days. 30 μl of CellTiter-Glo work solution was added to each well, mixed well, and incubated for 30 minutes. After standing at room temperature for 30 minutes, 40 μl of the mixed solution was transferred to an opaque 384-well plate with a white clear bottom. Luminescence chemiluminescence value was read by a microplate reader, and the cell proliferation inhibition rate (IR (%)=(RLU control-RLU compound)/(RLU control-RLU blank)×100%) was calculated. The gradiently diluted concentration of the compounds and corresponding cell proliferation inhibition rate were fitted using XLFit four-parameters method, and the IC50 value was calculated. […] The results of some exemplary compounds are shown in Table 2 (“−” represents untested).

IC50 [1] [nM]	Compound	IC50 ([1]; Homo sapiens) [nM]	IC50 (AGS cells (KRAS G12D)) [nM]
–	C#Cc1c(F)ccc2cccc(-c3nc4c5c(nc(OCC67CC(=C)CN6C[C@@H]6C[C@@H]67)nc5c3F)N3C[C@H]5CC[C@H](N5)[C@H]3[C@H](C)O4)c12 (stereo partly drawn) [Example Z605, (5S,5aS,6S,9R)-2-(8-ethynyl-7-fluoronaphthalen-1-yl)-1-fluoro-5-methyl-12-(((1aR,6bS)-5-methylenehexahydrocyclopropa[a]pyrrolizin-6a (4H)-yl)methoxy)-5a,6,7,8,9,10-hexahydro-5H-4-oxa-3,10a,11,13,14-pentaaza-6,9-methanonaphtho[1,8-ab]heptalene]	554	–
–	C=C1CN2C[C@H](F)CC2(COc2nc3c4c(nc(-c5nc(N)cc(C)c5C5CC5)c(F)c4n2)O[C@@H](C)[C@@H]2[C@@H]4CC[C@H](CN32)N4)C1 (stereo partly drawn) [Example Z676, 5-cyclopropyl-6-((5S,5aS,6S,9R)-1-fluoro-12-(((2R)-2-fluoro-6-methylenetetrahydro-1H-pyrrolizin-7a (5H)-yl)methoxy)-5-methyl-5a,6,7,8,9,10-hexahydro-5H-4-oxa-3,10a, 11, 13, 14-pentaaza-6,9-methanonaphtho[1,8-ab]heptalen-2-yl)-4-methylpyridin-2-amine]	70	267
–	C#Cc1c(F)ccc2cccc(-c3nc4c5c(nc(OCC67CC(F)CN6CCC7=C)nc5c3F)N3C[C@H]5CC[C@H](N5)[C@H]3[C@H](C)O4)c12 (stereo partly drawn) [Example Z609, (5S,5aS,6S,9R)-2-(8-ethynyl-7-fluoronaphthalen-1-yl)-1-fluoro-12-((6-fluoro-1-methylenetetrahydro-1H-pyrrolizin-7a (5H)-yl)methoxy)-5-methyl-5a,6,7,8,9,10-hexahydro-5H-4-oxa-3,10a,11,13,14-pentaaza-6,9-methanonaphtho[1,8-ab]heptalene]	49.2	–
436	CCc1cccc2cc(O)cc(-c3cc4nc(OC[C@@]56CCCN5C[C@H](F)C6)nc5c4c(c3Cl)OC[C@@H]3[C@@H]4CC[C@H](CN53)N4)c12 [Example Z381, 4-((5aS,6S,9R)-3-Chloro-13-(((2R,7aS)-2-Fluorotetrahydro-1H-Pyrrolizin-7a (5H)-Yl)Methoxy)-5a,6,7,8,9,10-Hexahydro-5H-6,9-Epiminoazepino[2′,1′: 3,4][1,4]Oxazepino[5,6,7-De]Quinazolin-2-Yl)-5-Ethylnaphthalen-2-Ol]	–	–
–	C#Cc1cccc2cc(N)cc(-c3nc4c5c(nc(OC)nc5c3F)N3C[C@H]5CC[C@H](N5)[C@H]3[C@H](C)O4)c12 [Example Z705, 5-ethynyl-4-((5S,5aS,6S,9R)-1-fluoro-12-methoxy-5-methyl-5a,6,7,8,9,10-hexahydro-5H-4-oxa-3,10a, 11,13,14-pentaaza-6,9-methanonaphtho[1,8-ab]heptalen-2-yl) naphthalen-2-amine]	195	–
–	C#Cc1c(F)ccc2cccc(-c3nc4c5c(nc(OC[C@]67CCCN6C[C@@H]6C[C@@H]67)nc5c3F)N3C[C@H]5CC[C@H](N5)[C@H]3[C@H](C)O4)c12 [Example Z626-1, (5S,5aS,6S,9R)-2-(8-ethynyl-7-fluoronaphthalen-1-yl)-1-fluoro-12-(((1aR,6aR,6bS)-hexahydrocyclopropa[a]pyrrolizin-6a (4H)-yl)methoxy)-5-methyl-5a,6,7,8,9,10-hexahydro-5H-4-oxa-3,10a, 11,13, 14-pentaaza-6,9-methanonaphtho[1,8-ab]heptalene]	411	502
–	CCc1cccc2cccc(-c3nc4c5c(nc(OC[C@@]67CCCN6C[C@H](F)C7)nc5c3F)N3C[C@H]5CC[C@H](N5)[C@H]3[C@H](CC)O4)c12 [Example Z592, (5S,5aS,6S,9R)-5-ethyl-2-(8-ethylnaphthalen-1-yl)-1-fluoro-12-(((2R,7aS)-2-fluorotetrahydro-1H-pyrrolizin-7a (5H)-yl)methoxy)-5a,6,7,8,9,10-hexahydro-5H-4-oxa-3,10a,11,13,14-pentaaza-6,9-methanonaphtho[1,8-ab]heptalene]	–	354
–	C#Cc1c(F)ccc2cccc(-c3nc4c5c(nc(OCC67CCCN6CC(=CF)C7)nc5c3F)N3C[C@H]5CC[C@H](N5)[C@H]3[C@@H](C)O4)c12 (stereo partly drawn) [Example Z630, (5R,5aS,6S,9R)-2-(8-ethynyl-7-fluoronaphthalen-1-yl)-1-fluoro-12-((2-(fluoromethylene)tetrahydro-1H-pyrrolizin-7a (5H)-yl)methoxy)-5-methyl-5a,6,7,8,9,10-hexahydro-5H-4-oxa-3,10a, 11, 13,14-pentaaza-6,9-methanonaphtho[1,8-ab]heptalene]	729	–
–	C=C1CN2C[C@H](F)CC2(COc2nc3c4c(nc(-c5cc(N)nc(C)c5C5CC5)c(F)c4n2)O[C@@H](C)[C@@H]2[C@@H]4CC[C@H](CN32)N4)C1 (stereo partly drawn) [Example Z680, 5-Cyclopropyl-4-((58,5aS,6S,9R)-1-Fluoro-12-(((2R)-2-Fluoro-6-Methylenetetrahydro-1H-Pyrrolizin-7a (5H)-Yl)Methoxy)-5-Methyl-5a,6,7,8,9,10-Hexahydro-5H-4-Oxa-3,10a,11,13,14-Pentaaza-6,9-Methanonaphtho[1,8-Ab]Heptalen-2-Yl)-6-Methylpyridin-2-Amine]	143	386
–	C=C1CN2C[C@H](F)CC2(COc2nc3c4c(nc(-c5cccc6cccc(C#N)c56)c(F)c4n2)O[C@@H](C)[C@@H]2[C@@H]4CC[C@H](CN32)N4)C1 (stereo partly drawn) [Example Z673, 8-((5S,5aS,6S,9R)-1-fluoro-12-(((2R)-2-fluoro-6-methylenetetrahydro-1H-pyrrolizin-7a (5H)-yl)methoxy)-5-methyl-5a,6,7,8,9,10-hexahydro-5H-4-oxa-3,10a,11,13,14-pentaaza-6,9-methanonaphtho[1,8-ab]heptalen-2-yl)-1-naphthonitrile]	147	–
–	C#Cc1cccc2c(N)ccc(-c3nc4c5c(nc(OCC67CC(=C)CN6C[C@H](F)C7)nc5c3F)N3C[C@H]5CC[C@H](N5)[C@H]3[C@H](C)O4)c12 (stereo partly drawn) [Example Z686, 5-ethynyl-4-((5S,5aS,6S,9R)-1-fluoro-12-(((2R)-2-fluoro-6-methylenetetrahydro-1H-pyrrolizin-7a (5H)-yl)methoxy)-5-methyl-5a,6,7,8,9,10-hexahydro-5H-4-oxa-3,10a,11,13,14-pentaaza-6,9-methanonaphtho[1,8-ab]heptalen-2-yl) naphthalen-1-amine]	447	–
–	C#Cc1c(F)ccc2cccc(-c3nc4c5c(nc(OCC67CCCN6CC(=C)C7)nc5c3F)N3C[C@H]5CC[C@H](N5)[C@H]3CCO4)c12 (stereo partly drawn) [Example Z640, (6aR,7S, 10R)-2-(8-ethynyl-7-fluoronaphthalen-1-yl)-1-fluoro-13-((2-methylenetetrahydro-1H-pyrrolizin-7a (5H)-yl)methoxy)-5,6,6a,7,8,9,10,11-octahydro-4-oxa-3,11a, 12, 14, 15-pentaaza-7,10-methanocyclohepta[4,5]cycloocta[1,2,3-de]naphthalene]	65.5	–
